In US11547697B2, “Heterocyclic compounds and uses thereof” (MILLENNIUM PHARMACEUTICALS, INC., priority 2009, dated 2023):
Read-outs that look alike come from different tables or passages of the source.

Experiments:
p110α/p85α = p110α/p85α (Homo sapiens (Human), UniProt P42336); experiment: PI 3-Kinase (human) HTRF assay, p110α/p85α; assay type: biochemical; settings: read-out: PI3K α IC50
p110β/p85α = p110β/p85α (Homo sapiens (Human), UniProt P42338); experiment: PI 3-Kinase (human) HTRF assay, p110β/p85α; assay type: biochemical; settings: read-out: PI3K β IC50
Method: (§1) An exemplary system is PI 3-Kinase (human) HTRF™ Assay from Upstate. […] Briefly, the assay is a time resolved FRET assay that indirectly measures PIP3 product formed by the activity of a PI3-K. The kinase reaction is performed in a microtitre plate (e.g., a 384 well microtitre plate). The total reaction volume is approximately 20 ul per well. In the first step, each well receives 2 ul of test compound in 20% dimethylsulphoxide resulting in a 2% DMSO final concentration. Next, approximately 14.5 ul of a kinase/PIP2 mixture (diluted in 1× reaction buffer) is added per well for a final concentration of 0.25-0.3 ug/ml kinase and 10 μM PIP2. The plate is sealed and incubated for 15 minutes at room temperature. To start the reaction, 3.5 ul of ATP (diluted in 1× reaction buffer) is added per well for a final concentration of 10 μM ATP. The plate is sealed and incubated for 1 hour at room temperature. The reaction is stopped by adding 5 ul of Stop Solution per well and then 5 ul of Detection Mix is added per well. The plate is sealed, incubated for 1 hour at room temperature, and then read on an appropriate plate reader. Data is analyzed and IC50s are generated using GraphPad Prism 5. […] For PI3K α, β, δ, and γ, the nM concentration of inhibitor to reach IC50 is provided.

p110δ/p85α = p110δ/p85α (Homo sapiens (Human), UniProt O00329); experiment: PI 3-Kinase (human) HTRF assay, p110δ/p85α; assay type: biochemical; settings: read-out: PI3K δ IC50
p110γ = p110γ (Homo sapiens (Human), UniProt P48736); experiment: PI 3-Kinase (human) HTRF assay, p110γ; assay type: biochemical; settings: read-out: PI3K γ IC50
Method: as §1

recombinant mTOR = recombinant mTOR (Homo sapiens (Human), UniProt P42345); experiment: mTOR inhibition assay (radiometric or LanthaScreen TR-FRET); assay type: biochemical; settings: read-out: MTORC IC50
Method: The compounds described herein can be tested against recombinant mTOR (Invitrogen) in an assay containing 50 mM HEPES, pH 7.5, 1 mM EGTA, 10 mM MgCl2, 2.5 mM, 0.01% Tween, 10 pM ATP (2.5 μCi of μ-32P-ATP), and 3 μg/mL BSA. R^at recombinant PHAS-1/4EBP1 (Calbiochem; 2 mg/mL) is used as a substrate. Reactions are terminated by spotting onto nitrocellulose, which is washed with 1M NaCl/1% phosphoric acid (approximately 6 times, 5-10 minutes each). Sheets are dried and the transferred radioactivity quantitated by phosphorimaging.
For instance, one can use Invitrogen's LanthaScreen™ Kinase assay to test the inhibitors of mTOR disclosed herein. This assay is a time resolved FRET platform that measures the phosphorylation of GFP labeled 4EBP1 by mTOR kinase. The kinase reaction is performed in a white 384 well microtitre plate. The total reaction volume is 20 ul per well and the reaction buffer composition is 50 mM HEPES pH7.5, 0.01% Polysorbate 20, 1 mM EGTA, 10 mM MnCl2, and 2 mM DTT. In the first step, each well receives 2 ul of test compound in 20% dimethylsulphoxide resulting in a 2% DMSO final concentration. Next, 8 ul of mTOR diluted in reaction buffer is added per well for a 60 ng/ml final concentration. To start the reaction, 10 ul of an ATP/GFP-4EBP1 mixture (diluted in reaction buffer) is added per well for a final concentration of 10 μM ATP and 0.5 μM GFP-4EBP1. The plate is sealed and incubated for 1 hour at room temperature. […] The plate is sealed, incubated for 1 hour at room temperature, and then read on a plate reader set up for LanthaScreen™ TR-FRET. Data is analyzed and IC50s are generated using GraphPad Prism 5.

[1] = system: tumor cells with a PI3Kα mutation (e.g., MDA-MB-361 and T47D); experiment: Proliferation of tumor cells with PI3Kα mutation; assay type: cell-based; settings: Homo sapiens, T47D cells
[2] = 5 μM, human plasma, 37° C.; cited from earlier work
[3] = system: Human tumor cell lines (e.g., MCF7, U-87 MG, MDA-MB-468, PC-3); experiment: Tumor cell line proliferation assay (Alamar Blue); assay type: cell-based; settings: PC3 cells
Method: The ability of one or more subject compounds to inhibit tumor cell line proliferation is determined according to standard procedures known in the art. For instance, an in vitro cellular proliferation assay can be performed to measure the metabolic activity of live cells. The assay is performed in a 96 well microtiter plate using Alamar Blue reduction. Human tumor cell lines are obtained from ATCC (e.g., MCF7, U-87 MG, MDA-MB-468, PC-3), grown to confluency in T75 flasks, trypsinized with 0.25% trypsin, washed one time with Tumor Cell Media (DMEM+10% FBS), and plated in 90 ul at 5,000 cells/well in Tumor Cell Media. A compound disclosed herein is diluted in Tumor Cell Media and added in a 10 ul volume. Plates are incubated for 72 hours at 37 C and 5% CO2. A volume of 10 uL of Alamar Blue reagent is added to each well and plates are incubated for 3 hours at 37 C and 5% CO2. Alamar Blue fluoresce is read at 560Ex/590Em, and IC50 values are calculated using GraphPad Prism 5.

[4] = system: lupus disease model mice (R2KO, BXSB or MLR/lpr); settings: B6.Sle1z.Sle3z model (T. Wu et al.); cited from earlier work
[5] = 5 μM, PBS pH 7.4, 37° C., 24 hours; cited from earlier work
[6] = system: PI3K/Akt/mTor signaling in blood cells; experiment: Kinase signaling in blood (phosflow); assay type: cell-based; settings: splenocytes or peripheral blood mononuclear cells, anti-CD3 stimulation
Method: PI3K/Akt/mTor signaling is measured in blood cells using the phosflow method (Methods Enzymol. 2007; 434:131-54). The advantage of this method is that it is by nature a single cell assay so that cellular heterogeneity can be detected rather than population averages. This allows concurrent distinction of signaling states in different populations defined by other markers. Phosflow is also highly quantitative. To test the effects of one or more compounds disclosed herein, unfractionated splenocytes, or peripheral blood mononuclear cells are stimulated with anti-CD3 to initiate T-cell receptor signaling. The cells are then fixed and stained for surface markers and intracellular phosphoproteins.
Similarly, aliquots of whole blood are incubated for 15 minutes with vehicle (e.g., 0.1% DMSO) or kinase inhibitors at various concentrations, before addition of stimuli to crosslink the T cell receptor (TCR) (anti-CD3 with secondary antibody) or the B cell receptor (BCR) using anti-kappa light chain antibody (Fab′2 fragments). After approximately 5 and 15 minutes, samples are fixed (e.g., with cold 4% paraformaldehyde) and used for phosflow. […] The level of phosphrylation of kinase substrates such as Akt and S6 are then measured by incubating the fixed cells with labeled antibodies specific to the phosphorylated isoforms of these proteins. The population of cells is then analyzed by flow cytometry.

HCT116 cells = experiment: Cell arrest assay, alone and in combination with MEK inhibitor; assay type: cell-based, human; settings: 3 μM compound 54 or 0.3 μM PD0325901, 20 hours
Method: Cells are then incubated in the presence of DMSO or inhibitor for 20 hours. The number of cells at each stage in the cell cycle is determined and expressed as a percent of the total, with an increase in the number of cells arrested at pre-GO/G1 indicating effective inhibition of cell cycle progression.

[7] = read-out: T47D proliferation IC50
[8] = read-out: PC3 proliferation IC50
[9] = read-out: PC3 proliferation (nM)*

Sequence of p110γ (P48736 whole entry): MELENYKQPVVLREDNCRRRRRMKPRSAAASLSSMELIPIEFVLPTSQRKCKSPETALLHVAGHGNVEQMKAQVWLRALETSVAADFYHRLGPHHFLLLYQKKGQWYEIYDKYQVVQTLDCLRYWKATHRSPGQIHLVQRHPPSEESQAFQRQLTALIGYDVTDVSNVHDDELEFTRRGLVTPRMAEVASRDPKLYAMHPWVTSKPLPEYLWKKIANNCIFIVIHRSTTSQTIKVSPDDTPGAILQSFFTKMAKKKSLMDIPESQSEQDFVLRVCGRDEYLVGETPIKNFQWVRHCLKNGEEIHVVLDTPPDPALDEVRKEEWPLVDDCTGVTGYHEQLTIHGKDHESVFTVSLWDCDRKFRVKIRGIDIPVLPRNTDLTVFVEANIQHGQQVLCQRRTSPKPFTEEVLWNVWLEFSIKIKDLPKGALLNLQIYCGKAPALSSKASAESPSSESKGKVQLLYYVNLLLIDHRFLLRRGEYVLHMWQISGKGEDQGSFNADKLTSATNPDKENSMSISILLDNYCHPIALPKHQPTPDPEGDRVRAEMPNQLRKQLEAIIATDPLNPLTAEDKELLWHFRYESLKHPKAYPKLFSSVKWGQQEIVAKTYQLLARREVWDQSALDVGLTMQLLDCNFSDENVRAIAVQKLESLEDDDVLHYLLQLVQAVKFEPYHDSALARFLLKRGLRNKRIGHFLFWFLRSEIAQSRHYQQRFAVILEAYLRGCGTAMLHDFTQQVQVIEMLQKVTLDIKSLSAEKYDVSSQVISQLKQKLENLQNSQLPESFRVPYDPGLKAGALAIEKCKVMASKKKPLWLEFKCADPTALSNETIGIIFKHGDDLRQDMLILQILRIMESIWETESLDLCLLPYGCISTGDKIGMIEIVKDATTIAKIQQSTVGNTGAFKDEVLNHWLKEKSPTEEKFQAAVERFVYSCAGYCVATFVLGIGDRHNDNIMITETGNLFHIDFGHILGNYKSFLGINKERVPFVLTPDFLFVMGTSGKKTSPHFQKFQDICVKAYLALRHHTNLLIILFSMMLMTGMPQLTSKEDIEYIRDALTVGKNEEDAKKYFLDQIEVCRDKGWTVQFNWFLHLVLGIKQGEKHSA
Sequence of p110β/p85α (P42338 whole entry): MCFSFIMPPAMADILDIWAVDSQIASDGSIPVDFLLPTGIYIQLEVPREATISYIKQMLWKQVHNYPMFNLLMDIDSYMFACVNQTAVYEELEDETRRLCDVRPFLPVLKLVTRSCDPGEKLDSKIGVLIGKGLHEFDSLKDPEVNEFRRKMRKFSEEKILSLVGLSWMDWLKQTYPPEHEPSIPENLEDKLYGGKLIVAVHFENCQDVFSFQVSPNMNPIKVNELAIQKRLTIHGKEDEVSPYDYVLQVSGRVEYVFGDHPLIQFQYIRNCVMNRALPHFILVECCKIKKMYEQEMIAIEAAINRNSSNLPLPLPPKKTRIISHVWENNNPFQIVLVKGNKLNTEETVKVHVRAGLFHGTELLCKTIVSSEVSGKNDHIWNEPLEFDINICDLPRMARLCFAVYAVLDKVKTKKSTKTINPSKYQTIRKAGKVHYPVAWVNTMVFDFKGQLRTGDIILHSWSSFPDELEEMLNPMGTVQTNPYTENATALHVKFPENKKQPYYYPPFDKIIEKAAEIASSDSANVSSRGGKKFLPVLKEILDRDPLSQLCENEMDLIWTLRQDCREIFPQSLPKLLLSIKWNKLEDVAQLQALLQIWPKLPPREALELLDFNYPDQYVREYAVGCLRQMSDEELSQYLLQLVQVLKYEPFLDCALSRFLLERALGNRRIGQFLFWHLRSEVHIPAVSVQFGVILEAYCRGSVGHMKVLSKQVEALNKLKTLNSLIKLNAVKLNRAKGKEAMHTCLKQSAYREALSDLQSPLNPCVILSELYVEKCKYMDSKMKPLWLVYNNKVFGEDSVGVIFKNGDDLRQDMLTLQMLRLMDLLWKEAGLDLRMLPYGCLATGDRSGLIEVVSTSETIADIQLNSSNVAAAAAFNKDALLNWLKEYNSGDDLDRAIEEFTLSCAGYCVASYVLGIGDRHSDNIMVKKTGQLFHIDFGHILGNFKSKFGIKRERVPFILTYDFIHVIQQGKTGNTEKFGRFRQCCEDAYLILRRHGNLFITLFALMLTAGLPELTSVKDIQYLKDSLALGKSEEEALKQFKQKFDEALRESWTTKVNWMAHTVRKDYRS
Sequence of p110β/p85α (P27986 whole entry partner): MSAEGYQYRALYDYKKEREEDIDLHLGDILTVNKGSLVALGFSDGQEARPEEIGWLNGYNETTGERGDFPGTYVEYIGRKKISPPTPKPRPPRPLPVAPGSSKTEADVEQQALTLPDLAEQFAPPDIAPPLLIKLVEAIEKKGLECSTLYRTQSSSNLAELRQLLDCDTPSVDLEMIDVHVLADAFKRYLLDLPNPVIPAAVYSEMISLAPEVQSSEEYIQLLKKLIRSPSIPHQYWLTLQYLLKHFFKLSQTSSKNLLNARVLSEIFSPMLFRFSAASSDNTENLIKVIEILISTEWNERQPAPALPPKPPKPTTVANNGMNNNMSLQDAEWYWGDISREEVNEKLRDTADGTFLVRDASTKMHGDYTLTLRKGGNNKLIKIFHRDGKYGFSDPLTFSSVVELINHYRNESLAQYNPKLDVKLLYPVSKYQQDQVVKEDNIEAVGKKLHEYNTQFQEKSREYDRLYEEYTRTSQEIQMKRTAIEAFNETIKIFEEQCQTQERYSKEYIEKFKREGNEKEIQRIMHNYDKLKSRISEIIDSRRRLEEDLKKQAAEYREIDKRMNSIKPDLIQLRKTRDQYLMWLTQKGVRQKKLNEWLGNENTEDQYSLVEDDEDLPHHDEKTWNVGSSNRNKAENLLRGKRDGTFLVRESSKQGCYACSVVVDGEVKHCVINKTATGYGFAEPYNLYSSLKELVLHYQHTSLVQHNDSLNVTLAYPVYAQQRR
Sequence of recombinant mTOR (P42345 1360-2549): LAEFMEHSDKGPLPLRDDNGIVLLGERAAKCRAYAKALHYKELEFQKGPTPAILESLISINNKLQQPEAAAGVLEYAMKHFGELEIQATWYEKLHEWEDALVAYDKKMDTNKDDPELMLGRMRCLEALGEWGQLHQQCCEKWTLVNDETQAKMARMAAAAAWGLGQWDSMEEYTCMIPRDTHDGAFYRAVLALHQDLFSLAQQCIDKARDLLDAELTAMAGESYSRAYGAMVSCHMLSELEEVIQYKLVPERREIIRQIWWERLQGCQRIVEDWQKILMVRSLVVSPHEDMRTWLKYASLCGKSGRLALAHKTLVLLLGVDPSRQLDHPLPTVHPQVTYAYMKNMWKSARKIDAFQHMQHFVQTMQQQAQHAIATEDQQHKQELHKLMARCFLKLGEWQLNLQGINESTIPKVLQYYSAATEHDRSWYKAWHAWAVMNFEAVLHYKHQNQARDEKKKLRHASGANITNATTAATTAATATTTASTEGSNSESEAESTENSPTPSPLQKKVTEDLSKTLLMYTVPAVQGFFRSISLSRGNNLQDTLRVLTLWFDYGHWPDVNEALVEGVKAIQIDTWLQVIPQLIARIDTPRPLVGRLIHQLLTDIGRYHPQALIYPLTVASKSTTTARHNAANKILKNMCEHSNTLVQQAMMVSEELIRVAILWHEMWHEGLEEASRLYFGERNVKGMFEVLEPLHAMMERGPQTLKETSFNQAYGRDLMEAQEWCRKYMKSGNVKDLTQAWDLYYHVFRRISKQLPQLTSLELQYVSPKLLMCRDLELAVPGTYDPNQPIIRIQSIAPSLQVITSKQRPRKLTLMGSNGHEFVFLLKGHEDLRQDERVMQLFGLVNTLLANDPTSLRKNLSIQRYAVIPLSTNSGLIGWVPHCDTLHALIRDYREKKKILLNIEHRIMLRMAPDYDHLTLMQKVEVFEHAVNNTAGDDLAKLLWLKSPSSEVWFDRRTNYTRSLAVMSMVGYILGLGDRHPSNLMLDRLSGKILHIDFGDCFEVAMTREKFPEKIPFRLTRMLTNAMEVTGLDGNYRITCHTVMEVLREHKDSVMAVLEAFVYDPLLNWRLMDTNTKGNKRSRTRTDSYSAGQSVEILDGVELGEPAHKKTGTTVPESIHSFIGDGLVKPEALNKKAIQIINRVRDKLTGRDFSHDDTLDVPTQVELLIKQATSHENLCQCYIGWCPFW

Structure (SMILES)	IC50 (p110α/p85α) [nM]	IC50 (p110β/p85α) [nM]	IC50 (p110δ/p85α) [nM]	IC50 (p110γ) [nM]	IC50 (recombinant mTOR) [nM]	IC50 (p110α/p85α; in vitro) [nM]	IC50 (p110β/p85α; in vitro) [nM]	IC50 (p110δ/p85α; in vitro) [nM]	IC50 (p110γ; in vitro) [nM]	IC50 (recombinant mTOR; in vitro) [nM]	IC50 [1, 7] [nM]	also measured
Nc1nc2cc(-c3ccc4ncnc(OC5CCOCC5)c4c3)ccc2o1 [compound 47]	< 100	< 1000	< 1000	< 1000	< 100	–	–	–	–	–	–	IC50 ([1]; read-out: T47D proliferation): < 1000 nM
CCCOc1cc(N)ccc1C(=O)OCCN(CC)CC [propoxycaine]	–	–	–	–	–	–	–	–	–	–	–	Plasma stability of control compounds [2]: low plasma stability
C[C@@H]1CN(C(=O)C2CN(c3cnc4ccc(-c5ccc6oc(N)nc6c5)cc4n3)C2)CCN1 [compound 267]	–	–	–	–	–	< 100	< 10000	< 1000	< 1000	< 10000	< 1000	–
Nc1nc2cc(-c3ccc4ncc(N5CCN(C(=O)[C@@H](N)CO)CC5)nc4c3)ccc2o1 [compound 298]	–	–	–	–	–	< 100	< 1000	< 10000	< 10000	< 10000	< 10000	–
CC(C)[N+](C)(CCOC(=O)C1c2ccccc2Oc2ccccc21)C(C)C [propantheline]	–	–	–	–	–	–	–	–	–	–	–	Plasma stability of control compounds [2]: intermediate plasma stability
CC(=O)Nc1nc2ccc(-c3ccc4oc(N)nc4c3)cc2s1 [compound 231]	–	–	–	–	–	< 100	< 1000	< 100	< 100	< 10000	< 1000	IC50 [3, 8]: < 10000 nM
CCOC(=O)N1CCN(c2cnc3ccc(-c4ccc5oc(N)nc5c4)cc3n2)CC1 [compound 119]	< 100	< 10000	< 10000	< 10000	< 10000	–	–	–	–	–	–	IC50 ([1]; read-out: T47D proliferation): < 10000 nM
Nc1nc2cc(-c3ccc4ncc(-c5ccncc5)n4n3)ccc2o1 [compound 10]	< 100	< 1000	–	< 100	< 1000	–	–	–	–	–	–	IC50 [3, 9]: < 1000 nM; IC50 ([1]; read-out: T47D proliferation): < 1000 nM
Nc1nc2cc(-c3ccc4ncc(N5CC(C(=O)N6CCOCC6)C5)nc4c3)ccc2o1 [compound 169]	< 100	< 1000	< 1000	< 1000	< 10000	–	–	–	–	–	–	IC50 ([1]; read-out: T47D proliferation): < 1000 nM
CO[C@H]1C[C@@H]2CC[C@@H](C)[C@@](O)(O2)C(=O)C(=O)N2CCCC[C@H]2C(=O)O[C@H]([C@H](C)C[C@@H]2CC[C@@H](OCCO)[C@H](OC)C2)CC(=O)[C@H](C)/C=C(\C)[C@@H](O)[C@@H](OC)C(=O)[C@H](C)C[C@H](C)/C=C/C=C/C=C/1C [RAD001]	–	–	–	–	–	–	–	–	–	–	–	Effect on lupus symptoms [4]: ameliorate lupus symptoms
Cn1c(=O)n(-c2ccc(C(C)(C)C#N)cc2)c2c3cc(-c4ccc5oc(N)nc5c4)ccc3ncc21 [compound 7]	< 100	< 100	< 100	< 100	< 100	–	–	–	–	–	–	IC50 [3, 9]: < 100 nM
Cc1nccn1C1CN(c2cnc3ccc(-c4ccc5oc(N)nc5c4)cc3n2)C1 [compound 354]	–	–	–	–	–	< 100	< 10000	< 10000	< 10000	< 10000	< 1000	–
CN1CCN(C(=O)C2CN(c3cnc4ccc(-c5ccc6oc(N)nc6c5)cc4n3)C2)CC1 [compound 170]	< 100	< 1000	< 1000	< 10000	< 10000	–	–	–	–	–	–	IC50 ([1]; read-out: T47D proliferation): < 1000 nM
CS(=O)(=O)N1CCN(Cc2cc3nc(-c4ccc5oc(N)nc5c4)nc(N4CCOCC4)c3s2)CC1 [compound 129]	< 100	< 1000	< 1000	< 100	< 1000	–	–	–	–	–	–	IC50 [3, 9]: < 1000 nM
CC(=O)Nc1cn2cc(-c3ccc4oc(N)nc4c3)ccc2n1 [compound 234]	–	–	–	–	–	< 100	< 1000	< 100	< 100	< 1000	< 1000	IC50 [3, 8]: < 100 nM
Nc1nc2cc(-c3ccc4ncc(OC5CCOCC5)nc4c3)ccc2o1 [compound 49]	< 100	–	< 10000	< 1000	< 10000	–	–	–	–	–	–	IC50 ([1]; read-out: T47D proliferation): < 10000 nM
CN1CCC(Nc2ncnc3ccc(-c4ccc5oc(N)nc5c4)cc23)CC1 [compound 35]	< 100	–	< 100	< 100	< 10000	–	–	–	–	–	–	IC50 ([1]; read-out: T47D proliferation): < 10000 nM
Nc1nc2cc(-c3ccc4ncc(N5CC(C(=O)N6CCN(C7CC7)CC6)C5)nc4c3)ccc2o1 [compound 276]	–	–	–	–	–	< 100	< 10000	< 1000	< 1000	< 10000	< 1000	–
Nc1nc2cc(-c3ccc4ncc(-c5ccncc5)n4c3)ccc2o1 [compound 6]	< 100	< 10000	< 1000	< 100	< 10000	–	–	–	–	–	–	IC50 [3, 9]: < 10000 nM; IC50 ([1]; read-out: T47D proliferation): < 1000 nM
Nc1nc2ccc(-c3ccc4nccc(-c5ccncc5)c4c3)cc2o1 [compound 4]	< 100	< 100	< 100	< 100	< 1000	–	–	–	–	–	–	IC50 [3, 9]: < 100 nM
CC(C)[C@@H](N)C(=O)N1CCN(c2cnc3ccc(-c4ccc5oc(N)nc5c4)cc3n2)CC1 [compound 270]	–	–	–	–	–	< 100	< 1000	< 1000	< 1000	< 10000	< 1000	–
CN1CCN(c2cnc3ccc(-c4ccc5oc(N)nc5c4)cc3n2)CC1=O [compound 277]	–	–	–	–	–	< 100	< 1000	< 10000	< 1000	< 10000	< 1000	–
CN1CCN(C2CN(c3cnc4ccc(-c5ccc6oc(N)nc6c5)cc4n3)C2)CC1 [compound 274]	–	–	–	–	–	< 100	< 10000	< 10000	< 10000	< 10000	< 1000	–
O=C(O)CCCc1ccc(N(CCCl)CCCl)cc1 [chlorambucil, 4-[bis(2-chloroethyl)amino]benzenebutanoic acid]	–	–	–	–	–	–	–	–	–	–	–	Chemical stability of reference compound [5]: largely hydrolyzed over the course of 24 hours
CN1CCC(N(C)C(=O)c2cnc3ccc(-c4ccc5oc(N)nc5c4)cn23)CC1 [compound 165]	< 1000	< 10000	< 10000	–	–	–	–	–	–	–	–	IC50 [3, 9]: < 1000 nM
CC(=O)Nc1nc2ccc(-c3ccc4nccc(-c5ccncc5)c4c3)cc2s1 [compound 2]	< 1000	–	–	< 1000	–	–	–	–	–	–	–	IC50 [3, 9]: < 10000 nM
CO[C@H]1C[C@@H]2CC[C@@H](C)[C@@](O)(O2)C(=O)C(=O)N2CCCC[C@H]2C(=O)O[C@H]([C@H](C)C[C@@H]2CC[C@@H](O)[C@H](OC)C2)CC(=O)[C@H](C)/C=C(\C)[C@@H](O)[C@@H](OC)C(=O)[C@H](C)C[C@H](C)/C=C/C=C/C=C/1C [rapamycin]	–	–	–	–	–	–	–	–	–	–	–	anti-CD3 mediated Akt -S473 phosphorylation [6]: enhances Akt phosphorylation; anti-CD3 mediated S6 phosphorylation [6]: inhibits S6 phosphorylation
O=C(NOC[C@H](O)CO)c1ccc(F)c(F)c1Nc1ccc(I)cc1F [PD0325901, reference compound]	–	–	–	–	–	–	–	–	–	–	–	Cell cycle arrest, single inhibitor versus DMSO control (HCT116 cells): some increase in cell cycle arrest by comparison to DMSO control
